Measurements published in ChEMBL document CHEMBL5584260, “Identification of coumarin - benzimidazole hybrids as potential antibacterial agents: Synthesis, in vitro and in vivo biological assessment, and ADMET prediction” (Bioorg Med Chem Lett, 2024).
In brackets after ≈: the same amount, converted by molar mass.

Columns and labels:
Pseudomonas aeruginosa [1] = experiment: Antibacterial activity against Pseudomonas aeruginosa ATCC 27853 assessed as inhibition of bacterial growth by CLSI protocol based microtiter broth dilution method; type: functional
Acinetobacter baumannii = experiment: Antibacterial activity against Acinetobacter baumannii BAA-16051 assessed as inhibition of bacterial growth by CLSI protocol based microtiter broth dilution method; type: functional
Klebsiella pneumoniae [2] = experiment: Antibacterial activity against Klebsiella pneumoniae ATCC 27736 assessed as inhibition of bacterial growth by CLSI protocol based microtiter broth dilution method; type: functional
THP-1 [3] = experiment: (§1) Cytotoxicity against human THP-1 cells assessed as cell survival at 50 uM incubated for 24 hrs by MTT assay (reference value: 100.0 +/- 5.24 %); type: toxicity, cell-based; conditions: thp-1, 24 h, 50 µM
THP-1 [4] = experiment: (§2) Cytotoxicity against human THP-1 cells assessed as cell survival at 100 uM incubated for 24 hrs by MTT assay (reference value: 100.0 +/- 5.24 %); type: toxicity, cell-based; conditions: thp-1, 24 h, 100 µM
THP-1 [5] = experiment: Cytotoxicity against human THP-1 cells assessed as cell death at 50 uM incubated for 24 hrs by LDH assay (reference value: 0.00 +/- 0.56 %); type: toxicity, cell-based; conditions: thp-1, 24 h
THP-1 [6] = experiment: Cytotoxicity against human THP-1 cells assessed as cell death at 100 uM incubated for 24 hrs by LDH assay (reference value: 0.00 +/- 0.56 %); type: toxicity, cell-based; conditions: thp-1, 24 h
Bacillus subtilis [7] = experiment: Antibacterial activity against Bacillus subtilis incubated for 24 hrs by serial broth dilution method; type: functional
Escherichia coli [8] = experiment: Antibacterial activity against Escherichia coli incubated for 24 hrs by serial broth dilution method; type: functional
[9] = as §1; type: toxicity, cell-based; conditions: THP-1 cells, read-out: Activity
[10] = as §2; type: toxicity, cell-based; conditions: THP-1 cells, read-out: Activity
Klebsiella pneumoniae [11] = experiment: Antimicrobial activity against Klebsiella pneumoniae ATCC 27736 infected in neutropenic thigh infection BALB/c mouse model assessed as log reduction in bacterial count in thigh at 50 mg/kg pre-infected with bacteria for 3 to 6 hrs followed by compound administration and measured 36 hrs post infection; type: functional; conditions: time 30-33 hrs
Bacillus subtilis [12] = experiment: Antibacterial activity against Bacillus subtilis incubated for 16 hrs by CLSI protocol based microtiter broth dilution method; type: functional
Staphylococcus aureus [13] = experiment: Antibacterial activity against Staphylococcus aureus incubated for 16 hrs by CLSI protocol based microtiter broth dilution method; type: functional
Escherichia coli [14] = experiment: Antibacterial activity against Escherichia coli incubated for 16 hrs by CLSI protocol based microtiter broth dilution method; type: functional
Pseudomonas aeruginosa [15] = experiment: Antibacterial activity against Pseudomonas aeruginosa incubated for 16 hrs by CLSI protocol based microtiter broth dilution method; type: functional
Staphylococcus aureus [16] = experiment: Antibacterial activity against Staphylococcus aureus incubated for 24 hrs by serial broth dilution method; type: functional
Pseudomonas aeruginosa [17] = experiment: Antibacterial activity against Pseudomonas aeruginosa incubated for 24 hrs by serial broth dilution method; type: functional

| Molecule | MIC (Pseudomonas aeruginosa [1]) [µg/mL] | MIC (Acinetobacter baumannii) [µg/mL] | MIC (Klebsiella pneumoniae [2]) [µg/mL] | also measured |
| --- | --- | --- | --- | --- |
| O=c1oc2ccc(Br)cc2cc1-c1nc2ccccc2n1-c1ccc(Br)cc1 | > 100 | > 100 | > 100 |  |
| POLYMYXIN B [listing 1 of 2 here] |  |  |  | Activity (THP-1 [3]): 72.77%; Activity (THP-1 [4]): 54.94%; Activity (THP-1 [5]): 19.64%; Activity (THP-1 [6]): 30.59% |
| C[C@@H](O)[C@H]1C(=O)N2C(C(=O)O)=C(S[C@@H]3CN[C@H](C(=O)N(C)C)C3)[C@H](C)[C@H]12 [MEROPENEM] | 6.25 (≈ 16.3 µM) | > 50 | 0.78 (≈ 2.03 µM) |  |
| O=c1oc2ccccc2c(O)c1C(Sc1nc2ccccc2[nH]1)c1ccc(O)cc1 (configuration not stated) |  |  |  | MIC (Bacillus subtilis [7]): 250 µg/mL (≈ 600 µM); MIC (Escherichia coli [8]): 250 µg/mL (≈ 600 µM) |
| Cc1ccc(-n2c(-c3cc4cc(Cl)ccc4oc3=O)nc3ccccc32)cc1 | > 100 | > 100 | > 100 |  |
| O=c1oc2ccc(Cl)cc2cc1-c1nc2ccccc2n1-c1ccc(Cl)cc1 | > 100 | > 100 | > 100 |  |
| POLYMYXIN B [listing 2 of 2 here] | 1.25 | 3.12 | 1.25 |  |
| O=c1oc2ccccc2cc1-c1nc2ccccc2n1-c1ccccc1 | > 100 | > 100 | > 100 |  |
| O=c1oc2ccccc2cc1-c1nc2ccccc2n1-c1ccc(Cl)cc1 | > 100 | > 100 | > 100 |  |
| O=c1oc2ccc(Br)cc2cc1-c1nc2ccccc2[nH]1 | > 100 | > 100 | > 100 |  |
| O=c1oc2ccccc2cc1-c1nc2ccccc2n1-c1ccc(Br)cc1 | > 100 | > 100 | > 100 |  |
| CCCCn1c(-c2cc3ccccc3oc2=O)nc2ccccc21 | > 100 | > 100 | 6.25 (≈ 19.6 µM) | viability at 24 h, 50 µM [9]: 89.7%; viability at 24 h, 100 µM [10]: 27.7%; Activity (THP-1 [5]): 8.01%; Activity (THP-1 [6]): 11.43%; log(activity) (Klebsiella pneumoniae [11]): >2 |
| CN[C@H](CC(C)C)C(=O)N[C@H]1C(=O)N[C@@H](CC(N)=O)C(=O)N[C@H]2C(=O)N[C@H]3C(=O)N[C@H](C(=O)N[C@H](C(=O)O)c4cc(O)cc(O)c4-c4cc3ccc4O)[C@H](O)c3ccc(c(Cl)c3)Oc3cc2cc(c3O[C@@H]2O[C@H](CO)[C@@H](O)[C@H](O)[C@H]2O[C@H]2C[C@](C)(N)[C@H](O)[C@H](C)O2)Oc2ccc(cc2Cl)[C@H]1O [VANCOMYCIN] | > 50 | 12.5 (≈ 8.63 µM) | > 50 | viability at 24 h, 50 µM [9]: 66.1%; viability at 24 h, 100 µM [10]: 65.9%; Activity (THP-1 [5]): 6.99%; Activity (THP-1 [6]): 13.88% |
| Cc1ccc(-n2c(-c3cc4cc(Br)ccc4oc3=O)nc3ccccc32)cc1 | > 100 | > 100 | > 100 |  |
| O=c1oc2ccc(Br)cc2cc1-c1nc2ccccc2n1-c1ccccc1 | > 100 | > 100 | > 100 |  |
| O=c1oc2ccc(Cl)cc2cc1-c1nc2ccccc2n1-c1ccccc1 | > 100 | > 100 | > 100 |  |
| O=c1oc2ccc(Br)cc2cc1-c1nc2ccccc2n1-c1ccc(Cl)cc1 | > 100 | > 100 | > 100 |  |
| O=c1oc2ccc(Cl)cc2cc1-c1nc2ccccc2[nH]1 | > 100 | > 100 | > 100 |  |
| O=c1oc2ccc(Cl)cc2cc1-c1nc2ccccc2n1-c1ccc(Br)cc1 | > 100 | > 100 | > 100 |  |
| O=c1oc2ccccc2cc1/C(Cn1cnc2ccccc21)=N\Oc1ccc(Cl)cc1 |  |  |  | MIC (Bacillus subtilis [12]): 0.95 µg/mL (≈ 2.21 µM); MIC (Staphylococcus aureus [13]): 1.56 µg/mL (≈ 3.63 µM); MIC (Escherichia coli [14]): 3.12 µg/mL (≈ 7.26 µM); MIC (Pseudomonas aeruginosa [15]): 3.12 µg/mL (≈ 7.26 µM) |
| Cc1ccc(-n2c(-c3cc4ccccc4oc3=O)nc3ccccc32)cc1 | > 100 | > 100 | 6.25 (≈ 17.7 µM) | viability at 24 h, 50 µM [9]: 94.1%; viability at 24 h, 100 µM [10]: 27.3%; Activity (THP-1 [5]): 11.25%; Activity (THP-1 [6]): 16.88%; log(activity) (Klebsiella pneumoniae [11]): >2 |
| O=C(CC(Sc1nc2ccccc2[nH]1)c1ccccc1)c1cc2ccccc2oc1=O (configuration not stated) |  |  |  | MIC (Bacillus subtilis [7]): 2300 µg/mL (≈ 5390 µM); MIC (Escherichia coli [8]): 2100 µg/mL (≈ 4920 µM); MIC (Staphylococcus aureus [16]): 2400 µg/mL (≈ 5630 µM); MIC (Pseudomonas aeruginosa [17]): 2200 µg/mL (≈ 5160 µM) |
